Consider 2 compounds from patent US11857637B2, “Anti-CD25 antibody-maytansine conjugates and methods of use thereof” (priority 2019, dated 2024).

Read-outs that look alike come from different tables or passages of the source.

One assay has as its system Karpas 299 xenograft. The assay is described as follows: Karpas 299 xenograft study. The class given is in vivo, Female CB17.SCID mice. Particulars: 10 mg/kg intravenously, single dose or qwk×4; at 28 days; subcutaneous Karpas 299 tumors, FIG. 11. The protocol:
Female CB17.SCID mice (6/group) were inoculated subcutaneously with 5×10^6 Karpas 299 cells. Treatment began when the tumors reached an average of 205 mm^3, at which time the animals were dosed intravenously with vehicle alone or the anti-CD25 HIPS-4AP-maytansine conjugate (10 mg/kg). One group received a single dose of the anti-CD25 HIPS-4AP-maytansine conjugate, while another group was dosed once per week for a total of four doses (qwk×4). The animals were monitored twice weekly for body weight and tumor size. Animals were euthanized when tumors reached 2000 mm^3.

For another assay, the system named is Karpas 299 cells. The assay is described as follows: In vitro cytotoxicity (Cell Titer-Glo, 5 d). The conditions noted are these: Karpas 299 cell line, 5 d incubation, FIG. 10. Type of assay: cell-based. On the procedure: (§1) The CD25-positive leukemia and lymphoma cell lines, SU-DHL-1, HDLM-2, EoL-1, L-540, and Karpas 299, were obtained from the ATCC and DSMZ cell banks, or were tested at Crown Bioscience, Inc. The cells were maintained in RPMI-1640 medium (Cellgro) supplemented with 10 or 20% fetal bovine serum (Invitrogen) and Glutamax (Invitrogen). 24 h prior to plating, cells were passaged to ensure log-phase growth. On the day of plating, 5000 cells/well were seeded onto 96-well plates in 100 μL normal growth medium supplemented with 10 IU penicillin and 10 μg/mL streptomycin (Cellgro). Cells were treated at various concentrations with 20 μL of diluted analytes, and the plates were incubated at 37° C. in an atmosphere of 5% CO2. After 5 d, 100 μL/well of Cell Titer-Glo reagent (Promega) was added, and luminescence was measured using a Molecular Devices SpectraMax M5 plate reader. GraphPad Prism software was used for data analysis.
For orientation: ATP-based viability assays read luminescence as a measure of living cells.

In another assay the test system is L-540 cells. The assay is described as follows: In vitro cytotoxicity (Cell Titer-Glo, 5 d). Type of assay: cell-based. Particulars: L-540 cell line, 5 d incubation, FIG. 9. The protocol: as §1
The subject of another assay is HDLM-2 cells. The assay is described as follows: In vitro cytotoxicity (Cell Titer-Glo, 5 d). Type of assay: cell-based. The conditions noted are these: HDLM-2 cell line, 5 d incubation, FIG. 7. The protocol:
as §1

The test system of another assay is EoL-1 cells. The assay is described as follows: In vitro cytotoxicity (Cell Titer-Glo, 5 d). Type of assay: cell-based. The conditions noted are these: EoL-1 cell line, 5 d incubation, FIG. 8. On the procedure: as §1
A further assay deals with SU-DHL-1 cells. The assay is described as follows: In vitro cytotoxicity (Cell Titer-Glo, 5 d). Type of assay: cell-based. The conditions noted are these: SU-DHL-1 cell line, 5 d incubation, FIG. 6. On the procedure: as §1
Assay [1] deals with CD25-positive leukemia and lymphoma cell lines, SU-DHL-1, HDLM-2, EoL-1, L-540, and Karpas 299. The assay is described as follows: In vitro cytotoxicity, range over the five cell lines. The conditions noted are these: read-out: IC50 concentrations (range across assays). The class given is cell-based. The protocol: as §1

For “anti-CD25 HIPS-4AP-maytansine conjugate: C-terminally aldehyde-tagged anti-CD25 antibody (daclizumab) conjugated to a maytansine payload attached to a HIPS-4AP linker; DAR 1.75-1.84”, in the assay with Karpas 299 xenograft, the “detectable tumors at median time to endpoint of vehicle control groups” value is given as “none of the animals that had been dosed with the anti-CD25 HIPS-4AP-maytansine conjugate had detectable tumors”. For the same compound, the IC50 in the assay with Karpas 299 cells is 0.49 nM; in the assay on L-540 cells, 0.43 nM; in the assay on HDLM-2 cells, 0.06 nM; in the assay on EoL-1 cells, 0.07 nM; in the assay on SU-DHL-1 cells, 0.24 nM; in assay [1] (range over all five tested cell lines, 5 d incubation) it was 0.06 to 0.49 nM.
`COc1cc2cc(c1Cl)N(C)C(=O)C[C@H](OC(=O)[C@H](C)N(C)C(C)=O)[C@]1(C)O[C@H]1[C@H](C)[C@@H]1C[C@@](O)(NC(=O)O1)[C@H](OC)/C=C/C=C(\C)C2` [free maytansine, maytansine]: the IC50 in assay [1] (120 h) lay within 0.03 to 0.19 nM.
